The text below walks through data of patent EP1276722B1, “NAPHTHAMIDINE UROKINASE INHIBITORS” (ABBOTT LABORATORIES, priority 2000, dated 2001).

The first test addresses T1, urokinase enzyme Abbokinase (Homo sapiens, UniProt P00749).
T1 construct: purchased Abbott Laboratories, Abbott Park, IL
In words: Inhibition of urokinase on chromogenic substrate S-2444. The following applies: read-out: Ki. In kind it is biochemical.
Method: Four concentrations were chosen, then 5 µl of each were diluted to a total assay volume of 200 µL. […] Several vials were reconstituted as directed on the vial, aliquoted, and stored frozen The enzyme was further diluted in assay buffer and 10 µL was used in the assay. Enzyme concentration in the assay was 2-3 nM. The assay was performed as follows: 175 µL of buffer was pipetted inta the polystyrene plate, and 5 µL solution of a compound of this invention in DMSO was added. The mixture was vortexed, treated with 10 µL of enzyme in buffer, vortexed, treated with 10 µL of substrate in water, and vortexed. […] The Spectromax® calculated the reaction rates which were used to calculate percent inhibition of the compounds of this invention versus the reaction rate of the enzyme in the absence of any inhibitor. The Ki's of the inhibitors were calculated from the percent inhibition and previously established Km.
In the case of `CCCC1c2cc(C3CC3c3ccc4cc(C(=N)N)ccc4c3)ccc2CCN1C` (stereo not drawn) [Example 11, 6-(2-(2-methyl-1-propyl-1,2,3,4-tetrahydro-7-isoquinolinyl)cyclopropyl)-2-naphthalenecarboximidamide], the Ki came out at 128 nM.
On to `CC(C)C1c2cc(C3CC3c3ccc4cc(C(=N)N)ccc4c3)ccc2CCN1Cc1cccnc1` (stereo not drawn) [Example 21, 6-(2-(1-isopropyl-2-(3-pyridinylmethyl)-1,2,3,4-tetrahydro-7-isoquinolinyl)cyclopropyl)-2-naphthalenecarboximidamide], for which the Ki came to 84 nM.
For the compound `CC(C)C1c2cc(C3CC3c3ccc4cc(C(=N)N)ccc4c3)ccc2CCN1Cc1ccccc1` (stereo not drawn) [Example 19, 6-(2-(2-benzyl-1-isopropyl-1,2,3,4-tetrahydro-7-isoquinolinyl)cyclopropyl)-2-naphthalenecarboximidamide], the Ki was 144 nM.
Turning to `CC(C)C1c2cc(C3CC3c3ccc4cc(C(=N)N)ccc4c3)ccc2CCN1CC1CC1` (stereo not drawn) [Example 23, 6-(2-(2-(cyclopropylmethyl)-1-isopropyl-1,2,3,4-tetrahydro-7-isoquinolinyl)cyclopropyl)-2-naphthalenecarboximidamide], the Ki came to 58 nM.
For `COc1ccccc1-c1cc(C2CC2c2ccc3c(c2)C(C(C)C)N(C)CC3)cc2ccc(C(=N)N)cc12` (stereo not drawn) [Example 40, 6-(2-(1-isopropyl-2-methyl-1,2,3,4-tetrahydro-7-isoquinolinyl)cyclopropyl)-8-(2-methoxyphenyl)-2-naphthalenecarboximidamide], the Ki stood at 810 nM.
In the case of `CC(C)C1c2cc(C3CC3c3cc(C4CC4)c4cc(C(=N)N)ccc4c3)ccc2CCN1C` (stereo not drawn) [Example 39, 8-cyclopropyl-6-(2-(1-isopropyl-2-methyl-1,2,3,4-tetrahydro-7-isoquinolinyl)cyclopropyl)-2-naphthalenecarboximidamide], the Ki was 37 nM.
Take `N=C(N)c1ccc2cc(C3CC3c3ccc4c(c3)C(c3ccccc3)=NCC4)ccc2c1` (stereo not drawn) [Example 10, 6-(2-(1-phenyl-3,4-dihydro-7-isoquinolinyl)cyclopropyl)-2-naphthalenecarboximidamide]: the Ki was determined as 142 nM.
The same measure, in the same setting: the same measure for `C=CCN1CCc2ccc(C3CC3c3ccc4cc(C(=N)N)ccc4c3)cc2C1C(C)C` (stereo not drawn) [Example 25, 6-(2-(2-allyl-1-isopropyl-1,2,3,4-tetrahydro-7-isoquinolinyl)cyclopropyl)-2-naphthalenecarboximidamide]: 63 nM.
On to `COCC=Cc1cc(C2CC2c2ccc3c(c2)C(C(C)C)=NCC3)cc2ccc(C(=N)N)cc12` (stereo not drawn) [Example 4, 6-(2-(1-isopropyl-3,4-dihydro-7-isoquinolinyl)cyclopropyl)-8-(3-methoxy-1-propenyl)-2-naphthalenecarboximidamide], for which the inhibition constant Ki was 59 nM.
Same read-out and setting: for `CC(C)C1=NCCc2ccc(C3CC3c3cc(/C=C/C(C)(C)C)c4cc(C(=N)N)ccc4c3)cc21` (stereo not drawn) [Example 34, 8-((1E)-3,3-dimethyl-1-butenyl)-6-(2-(1-isopropyl-3,4-dihydro-7-isoquinolinyl)cyclopropyl)-2-naphthalenecarboximidamide] the value was 51 nM.
Same read-out and setting: for `N=C(N)c1ccc2cc(C3CC3c3ccc4c(c3)C(C3CCCCC3)=NCC4)cc(Br)c2c1` (stereo not drawn) [Example 56, 8-bromo-6-(2-(1-cyclohexyl-3,4-dihydro-7-isoquinolinyl)cyclopropyl)-2-naphthalenecarboximidamide] the value was 18 nM; for `CC(C)C1=NCCc2ccc(C3CC3c3cc(C4CCOC4)c4cc(C(=N)N)ccc4c3)cc21` (stereo not drawn) [Example 7, 6-(2-(1-isopropyl-3,4-dihydro-7-isoquinolinyl)cyclopropyl)-8-tetrahydro-3-furanyl-2-naphthalenecarboximidamide], 45 nM.
For the compound `CCC1CNCc2ccc(C=Cc3ccc4cc(C(=N)N)ccc4c3)cc21` (stereo not drawn) [Example 50, 6-(2-(4-ethyl-1,2,3,4-tetrahydro-6-isoquinolinyl)ethenyl)-2-naphthalenecarboximidamide], the Ki amounted to 43 nM.

A further test concerns tumor metastasis.
Test: not given
The following applies: Anticancer Res. 1988, 8, 1373-1376; cited from earlier work.
Turning to `N=C(N)NC(=O)c1nc(Cl)c(N)nc1N` [Amiloride], the “tumor metastasis in vivo” value is given as “inhibit”.

The test system of the next test is angiogenesis.
Test: not given
The note with it: J. Cell Biol. 1991, 115[3 Pt 2], 402a; cited from earlier work.
With `N=C(N)NC(=O)c1nc(Cl)c(N)nc1N` [Amiloride], the angiogenesis in vitro result is listed as “inhibit”.

The term Ki denotes a dissociation constant, usually derived from enzyme kinetics or from competition with a known ligand.
